We go through eleven compounds from ChEMBL document CHEMBL1157764, “Conserved high activity binding peptides are involved in adhesion of two detergent-resistant membrane-associated merozoite proteins to red blood cells during invasion” (J Med Chem, 2010).

The assay is filed under the species Homo sapiens. In words: Binding affinity to RBC membrane receptor in human RBCs assessed as specific binding activity measured as ratio of specifically bound peptide/added peptide by gamma counter.

Regarding `CC(C)C[C@H](NC(=O)[C@@H](NC(=O)[C@@H](N)CC(=O)O)C(C)C)C(=O)N[C@@H](CO)C(=O)N[C@@H](CCC(=O)O)C(=O)N[C@@H](CO)C(=O)N[C@@H](CC(N)=O)C(=O)N[C@@H](CC(N)=O)C(=O)N[C@@H](CCC(=O)O)C(=O)N[C@@H](CC(N)=O)C(=O)N[C@@H](CCCCN)C(=O)N[C@@H](CCC(=O)O)C(=O)N[C@H](C(=O)N[C@@H](CO)C(=O)N[C@@H](CC(=O)O)C(=O)N[C@@H](CC(=O)O)C(=O)N[C@@H](C)C(=O)N[C@H](C(=O)N[C@@H](Cc1cnc[nH]1)C(=O)N[C@@H](Cc1ccc(O)cc1)C(=O)O)[C@@H](C)O)[C@@H](C)O`, the Activity was greater than 2%.

On to `CC(C)C[C@H](NC(=O)[C@H](CC(C)C)NC(=O)[C@H](CO)NC(=O)[C@@H]1CCCN1C(=O)[C@@H](NC(=O)[C@H](CC(C)C)NC(=O)[C@H](Cc1ccc(O)cc1)NC(=O)[C@H](CO)NC(=O)[C@H](CCCCN)NC(=O)[C@H](CCCCN)NC(=O)[C@H](CCCCN)NC(=O)CNC(=O)[C@@H](NC(=O)[C@H](CO)NC(=O)[C@H](CS)NC(=O)[C@H](CCCCN)NC(=O)[C@H](Cc1cnc[nH]1)NC(=O)[C@H](Cc1ccc(O)cc1)NC(=O)[C@H](CC(=O)O)NC(=O)[C@@H](N)CO)C(C)C)[C@@H](C)O)C(=O)O`, for which the Activity was less than 2%.

Consider `CC(C)C[C@H](NC(=O)[C@H](CC(N)=O)NC(=O)[C@H](CC(C)C)NC(=O)[C@@H]1CCCN1C(=O)[C@H](CC(N)=O)NC(=O)[C@H](CCCCN)NC(=O)[C@H](Cc1ccc(O)cc1)NC(=O)[C@@H](N)CS)C(=O)N[C@@H](CCCCN)C(=O)N[C@H](C(=O)N[C@@H](CC(C)C)C(=O)N[C@@H](CCC(=O)O)C(=O)N[C@H](C(=O)N[C@@H](CC(C)C)C(=O)N[C@@H](CC(C)C)C(=O)N[C@@H](CCCCN)C(=O)N[C@@H](CCCCN)C(=O)N[C@@H](CC(N)=O)C(=O)N[C@@H](Cc1ccc(O)cc1)C(=O)N[C@@H](Cc1ccc(O)cc1)C(=O)O)C(C)C)C(C)C`, for which the Activity is greater than 2%.

Regarding `CC(C)[C@H](NC(=O)[C@H](Cc1ccc(O)cc1)NC(=O)[C@@H](N)CCC(=O)O)C(=O)N[C@@H](CC(N)=O)C(=O)N[C@@H](C)C(=O)N[C@@H](CC(N)=O)C(=O)N[C@@H](CO)C(=O)N[C@@H](CO)C(=O)N[C@@H](CCC(=O)O)C(=O)N[C@@H](CO)C(=O)N[C@@H](CO)C(=O)N[C@@H](CCC(=O)O)C(=O)N[C@@H](CCC(=O)O)C(=O)N[C@@H](CC(=O)O)C(=O)N[C@H](C(=O)N[C@H](C(=O)N1CCC[C@H]1C(=O)N[C@@H](CC(N)=O)C(=O)N[C@@H](CCC(=O)O)C(=O)N[C@H](C(=O)O)[C@@H](C)O)[C@H](C)O)[C@@H](C)O`, the Activity was greater than 2%.

With `CC[C@H](C)[C@H](NC(=O)[C@@H](N)CO)C(=O)N[C@@H](CCC(=O)O)C(=O)N[C@@H](C)C(=O)N[C@@H](CO)C(=O)N[C@@H](CCC(=O)O)C(=O)N[C@@H](CO)C(=O)N[C@@H](CO)C(=O)N[C@@H](CCC(N)=O)C(=O)N[C@@H](CCCCN)C(=O)N[C@@H](CC(=O)O)C(=O)N[C@@H](CCC(=O)O)C(=O)N[C@H](C(=O)N[C@@H](CCCCN)C(=O)N[C@@H](CCC(=O)O)C(=O)N[C@H](C(=O)N[C@@H](CCC(=O)O)C(=O)N[C@@H](CC(=O)O)C(=O)N[C@@H](CCCCN)C(=O)N[C@@H](CCC(=O)O)C(=O)N[C@@H](Cc1ccc(O)cc1)C(=O)O)[C@H](C)O)[C@@H](C)O`, the Activity is greater than 2%.

With `CC[C@H](C)[C@H](NC(=O)[C@H](C)NC(=O)[C@H](CCC(=O)O)NC(=O)[C@H](C)NC(=O)[C@H](CC(=O)O)NC(=O)[C@@H](NC(=O)[C@H](CO)NC(=O)[C@H](CC(=O)O)NC(=O)[C@H](CCC(=O)O)NC(=O)[C@H](CC(=O)O)NC(=O)[C@H](CC(N)=O)NC(=O)[C@H](CCC(N)=O)NC(=O)[C@H](CCC(N)=O)NC(=O)[C@H](CC(C)C)NC(=O)[C@H](CCC(=O)O)NC(=O)[C@@H](N)CCC(=O)O)[C@@H](C)O)C(=O)N[C@@H](CC(=O)O)C(=O)N[C@@H](CCCCN)C(=O)N[C@@H](CCC(=O)O)C(=O)N[C@@H](CCC(=O)O)C(=O)N[C@H](C(=O)N[C@@H](CCC(=O)O)C(=O)N[C@@H](Cc1ccc(O)cc1)C(=O)O)C(C)C`, the Activity is greater than 2%.

Turning to `CC[C@H](C)[C@H](NC(=O)[C@H](CC(C)C)NC(=O)[C@@H](N)C(C)C)C(=O)N[C@@H](C)C(=O)N[C@@H](CCC(=O)O)C(=O)NCC(=O)N[C@@H](Cc1ccc(O)cc1)C(=O)N[C@@H](CCCCN)C(=O)N[C@@H](CCCNC(=N)N)C(=O)N[C@H](C(=O)N[C@@H](CC(N)=O)C(=O)N[C@@H](CCC(=O)O)C(=O)N[C@@H](CCCCN)C(=O)N[C@@H](CCC(=O)O)C(=O)N[C@@H](CC(=O)O)C(=O)N[C@H](C(=O)N[C@@H](CC(=O)O)C(=O)N[C@@H](CCCNC(=N)N)C(=O)N[C@@H](CCCNC(=N)N)C(=O)O)[C@@H](C)CC)[C@@H](C)CC`, the Activity was greater than 2%.

Take `CC[C@H](C)[C@H](NC(=O)[C@H](CCC(N)=O)NC(=O)CNC(=O)[C@H](C)NC(=O)[C@@H](N)CC(C)C)C(=O)N[C@@H](CC(N)=O)C(=O)NCC(=O)N[C@@H](CC(C)C)C(=O)N[C@@H](CC(N)=O)C(=O)N[C@@H](CC(=O)O)C(=O)N[C@@H](CC(C)C)C(=O)N[C@@H](Cc1ccc(O)cc1)C(=O)NCC(=O)N[C@@H](CCCNC(=N)N)C(=O)N[C@@H](CC(N)=O)C(=O)N[C@@H](CO)C(=O)N[C@@H](CCCCN)C(=O)N[C@@H](CCCCN)C(=O)N[C@H](C(=O)N[C@@H](Cc1ccc(O)cc1)C(=O)O)[C@@H](C)O`: the Activity is less than 2%.

For the compound `CC[C@H](C)[C@H](NC(=O)[C@H](CCCNC(=N)N)NC(=O)[C@H](CC(C)C)NC(=O)[C@H](CC(=O)O)NC(=O)[C@H](CCC(=O)O)NC(=O)[C@@H](NC(=O)[C@@H](NC(=O)[C@H](CO)NC(=O)CNC(=O)[C@H](CCCCN)NC(=O)[C@@H](N)CCCCN)[C@@H](C)CC)[C@@H](C)O)C(=O)N[C@H](C(=O)N[C@@H](CC(N)=O)C(=O)N[C@@H](CC(=O)O)C(=O)N[C@@H](CC(C)C)C(=O)N[C@@H](CCC(=O)O)C(=O)N1CCC[C@H]1C(=O)N[C@@H](CC(C)C)C(=O)N[C@@H](CC(=O)O)C(=O)N[C@@H](Cc1ccc(O)cc1)C(=O)O)C(C)C`, the Activity was greater than 2%.

For the compound `CC[C@H](C)[C@H](NC(=O)[C@H](Cc1ccc(O)cc1)NC(=O)[C@H](CCCCN)NC(=O)[C@H](CC(N)=O)NC(=O)[C@@H](N)CCCCN)C(=O)N[C@@H](CO)C(=O)N[C@@H](CC(C)C)C(=O)N[C@@H](Cc1ccc(O)cc1)C(=O)N[C@@H](CC(N)=O)C(=O)N[C@@H](CCCCN)C(=O)N[C@H](C(=O)N[C@@H](CCCCN)C(=O)N[C@H](C(=O)N[C@H](C(=O)N[C@@H](CCSC)C(=O)N1CCC[C@H]1C(=O)N[C@@H](CCC(=O)O)C(=O)N[C@@H](CC(C)C)C(=O)N[C@@H](Cc1ccccc1)C(=O)N[C@@H](CC(=O)O)C(=O)O)[C@@H](C)O)[C@H](C)O)C(C)C`, the Activity is greater than 2%.

On to `CC[C@H](C)[C@H](NC(=O)[C@H](Cc1ccccc1)NC(=O)[C@H](CC(C)C)NC(=O)[C@H](CC(C)C)NC(=O)[C@H](CC(C)C)NC(=O)[C@H](CC(C)C)NC(=O)[C@@H](NC(=O)[C@@H](NC(=O)[C@H](CC(C)C)NC(=O)[C@H](CC(C)C)NC(=O)[C@H](C)NC(=O)[C@H](CC(N)=O)NC(=O)[C@H](CO)NC(=O)[C@H](CCSC)NC(=O)[C@H](C)NC(=O)[C@H](Cc1ccccc1)NC(=O)[C@@H](N)Cc1ccccc1)C(C)C)[C@@H](C)CC)C(=O)N[C@@H](CCC(=O)O)C(=O)N[C@@H](Cc1ccccc1)C(=O)N[C@@H](CC(C)C)C(=O)N[C@@H](Cc1ccc(O)cc1)C(=O)O`, for which the Activity was greater than 2%.
